PubChem BioAssay (NCI)
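Results reflect a 48-hour exposure of cells in 96-well plates to compound at five concentrations. TGI: total growth inhibition.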

Experiments:
Assay in all cases: NCI tumour cell line growth inhibition, 48 h
[1] = tested on: A549 NSCLC
[2] = tested on: HS 578T breast
[3] = tested on: SF-539 CNS
[4] = tested on: UO-31 renal
[5] = tested on: HL-60(TB) leukemia
[6] = tested on: CAKI-1 renal
[7] = tested on: SN12C renal
[8] = tested on: MOLT-4 leukemia
[9] = tested on: HCT-15 colon
[10] = tested on: LOX IMVI melanoma
[11] = tested on: KM12 colon
[12] = tested on: UACC-257 melanoma
[13] = tested on: NCI-H23 lung
[14] = tested on: COLO 205 colon
[15] = tested on: OVCAR-4 ovarian
[16] = tested on: UACC-62 melanoma
[17] = tested on: M14 melanoma
[18] = tested on: HCT-116 colon
[19] = tested on: DU-145 prostate
[20] = tested on: IGROV1 ovarian
[21] = tested on: HOP-92 NSCLC
[22] = tested on: MDA-MB-231 breast
[23] = tested on: SK-MEL-5 melanoma
[24] = tested on: RXF 393 renal
[25] = tested on: MALME-3M melanoma
[26] = tested on: T-47D breast
[27] = tested on: CCRF-CEM leukemia
[28] = tested on: NCI/ADR-RES ovarian
[29] = tested on: OVCAR-3 ovarian
[30] = tested on: SK-MEL-2 melanoma
[31] = tested on: HT29 colon
[32] = tested on: BT-549 breast
[33] = tested on: EKVX NSCLC
[34] = tested on: SNB-19 CNS
[35] = tested on: PC-3 prostate
[36] = tested on: SW-620 colon
[37] = tested on: HCC-2998 colon
[38] = tested on: OVCAR-5 ovarian
[39] = tested on: MDA-MB-435
[40] = tested on: SF-268 CNS
[41] = tested on: HOP-62 NSCLC
[42] = tested on: U251 CNS
[43] = tested on: 786-0 renal
[44] = tested on: SR leukemia
[45] = tested on: TK-10 renal
[46] = tested on: OVCAR-8 ovarian
[47] = tested on: K-562 leukemia
[48] = tested on: NCI-H226 lung
[49] = tested on: MCF7 breast
[50] = tested on: ACHN renal
[51] = tested on: MDA-N
[52] = tested on: SF-295 CNS
[53] = tested on: NCI-H460 lung
[54] = tested on: A498 renal
[55] = tested on: SK-OV-3 ovarian
[56] = tested on: NCI-H522 lung
[57] = tested on: SNB-75 CNS
[58] = tested on: RPMI-8226 leukemia
[59] = tested on: SK-MEL-28 melanoma

COc1cc2ccc1OCc1cccc(n1)COc1ccc(cc1OC)C=Nc1ccc(cc1)N=C2
TGI [1]: > 100 µM
TGI [2]: > 100 µM
TGI [3]: > 100 µM
TGI [4]: > 100 µM
TGI [5]: > 100 µM
TGI [6]: > 100 µM
TGI [7]: > 100 µM
TGI [8]: > 100 µM
TGI [9]: > 100 µM
TGI [10]: > 100 µM
TGI [11]: > 100 µM
TGI [12]: > 100 µM
TGI [13]: > 100 µM
TGI [14]: > 100 µM
TGI [15]: > 100 µM
TGI [16]: > 100 µM
TGI [17]: > 100 µM
TGI [18]: > 100 µM
TGI [19]: > 100 µM
TGI [20]: > 100 µM
TGI [21]: > 100 µM
TGI [22]: > 100 µM
TGI [23]: > 100 µM
TGI [24]: > 100 µM
TGI [25]: > 100 µM
TGI [26]: > 100 µM
TGI [27]: > 100 µM
TGI [28]: > 100 µM
TGI [29]: > 100 µM
TGI [30]: > 100 µM
TGI [31]: > 100 µM
TGI [32]: > 100 µM
TGI [33]: > 100 µM
TGI [34]: > 100 µM
TGI [35]: > 100 µM
TGI [36]: > 100 µM
TGI [37]: > 100 µM
TGI [38]: > 100 µM
TGI [39]: > 100 µM
TGI [40]: > 100 µM
TGI [41]: > 100 µM
TGI [42]: > 100 µM
TGI [43]: > 100 µM
TGI [44]: > 100 µM
TGI [45]: > 100 µM
TGI [46]: > 100 µM
TGI [47]: > 100 µM
TGI [48]: > 100 µM
TGI [49]: > 100 µM
TGI [50]: > 100 µM
TGI [51]: > 100 µM
TGI [52]: > 100 µM
TGI [53]: > 100 µM
TGI [54]: > 100 µM
TGI [55]: > 100 µM
TGI [56]: > 100 µM
TGI [57]: > 100 µM

Cc1ccc(C2=CC(=O)/C(=C\C(=O)c3ccc(Cl)cc3)O2)cc1
TGI [2]: 55.1 µM
TGI [3]: 55.1 µM
TGI [4]: 21.4 µM
TGI [5]: 4.74 µM
TGI [6]: 4.38 µM
TGI [8]: > 100 µM
TGI [9]: 35.3 µM
TGI [10]: 3.31 µM
TGI [11]: 42.9 µM
TGI [12]: 4.75 µM
TGI [13]: 55.3 µM
TGI [14]: 26.1 µM
TGI [15]: 33.5 µM
TGI [16]: 23.8 µM
TGI [17]: 39.3 µM
TGI [18]: 27.8 µM
TGI [19]: 87.1 µM
TGI [20]: 34.2 µM
TGI [58]: 6.31 µM
TGI [21]: 33.3 µM
TGI [22]: 25.1 µM
TGI [23]: 33.2 µM
TGI [24]: 18.6 µM
TGI [25]: 32.7 µM
TGI [26]: 24.3 µM
TGI [27]: > 100 µM
TGI [28]: 49.6 µM
TGI [29]: 18.4 µM
TGI [31]: 15.1 µM
TGI [32]: 5.54 µM
TGI [33]: > 100 µM
TGI [34]: > 100 µM
TGI [35]: 12.2 µM
TGI [36]: 6.95 µM
TGI [37]: 51.1 µM
TGI [38]: 40.6 µM
TGI [39]: 32.2 µM
TGI [40]: 36.3 µM
TGI [41]: > 100 µM
TGI [42]: 32 µM
TGI [43]: 21.6 µM
TGI [44]: 6.1 µM
TGI [45]: 9.67 µM
TGI [46]: 14.6 µM
TGI [47]: 41.7 µM
TGI [48]: 40 µM
TGI [49]: 25.6 µM
TGI [50]: 17.3 µM
TGI [51]: 16.2 µM
TGI [59]: 33.1 µM
TGI [54]: 71.8 µM
TGI [55]: 56.7 µM
TGI [56]: 4.99 µM
TGI [57]: 74.5 µM
